Values of other authors in patent US20090105490A1, “Polymorphic forms of ramelteon and processes for preparation thereof” (priority 2007, published 2009).
Read-outs that look alike come from different tables or passages of the source.

Legend:
melatonin MT2 receptor = target: T1, melatonin MT2 receptor (Homo sapiens, UniProt P49286); conditions: melatonin receptor agonist
T1 sequence (P49286 1-362): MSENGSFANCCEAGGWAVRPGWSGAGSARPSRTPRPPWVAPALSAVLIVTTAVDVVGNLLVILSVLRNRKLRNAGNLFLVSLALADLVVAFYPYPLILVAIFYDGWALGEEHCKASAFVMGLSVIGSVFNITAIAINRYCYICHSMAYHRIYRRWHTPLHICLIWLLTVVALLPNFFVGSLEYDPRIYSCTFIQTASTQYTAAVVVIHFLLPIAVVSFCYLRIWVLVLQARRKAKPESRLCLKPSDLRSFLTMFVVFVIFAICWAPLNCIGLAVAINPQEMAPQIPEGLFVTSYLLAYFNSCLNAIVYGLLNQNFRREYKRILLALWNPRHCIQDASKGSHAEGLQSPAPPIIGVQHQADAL

melatonin MT1 receptor = melatonin MT1 receptor (Homo sapiens, UniProt P48039); conditions: melatonin receptor agonist
melatonin MT1 receptor, sequence (P48039 whole entry): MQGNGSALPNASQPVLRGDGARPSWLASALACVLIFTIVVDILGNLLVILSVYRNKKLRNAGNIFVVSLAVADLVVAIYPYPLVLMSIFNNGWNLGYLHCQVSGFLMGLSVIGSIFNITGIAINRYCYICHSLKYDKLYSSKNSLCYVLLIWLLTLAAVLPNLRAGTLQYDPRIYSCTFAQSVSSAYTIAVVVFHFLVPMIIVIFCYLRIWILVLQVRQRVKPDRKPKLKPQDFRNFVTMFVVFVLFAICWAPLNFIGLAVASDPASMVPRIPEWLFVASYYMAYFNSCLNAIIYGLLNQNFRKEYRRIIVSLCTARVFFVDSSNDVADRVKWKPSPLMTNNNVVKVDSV

MT3 receptor = conditions: MT1 and MT2 versus MT3

affinity for melatonin MT2 receptor (melatonin MT2 receptor): high affinity
affinity for melatonin MT1 receptor (melatonin MT1 receptor): high affinity
selectivity over the MT3 receptor (MT3 receptor): selectivity over the MT3 receptor
solubility (1-octanol): freely soluble
solubility (DMSO): freely soluble
solubility (aqueous buffers): slightly soluble
solubility (ethanol): freely soluble
solubility (methanol): freely soluble
solubility (water): slightly soluble
Structure (SMILES): CCC(=O)NCC[C@@H]1CCc2ccc3c(c21)CCO3 [Ramelteon, (S)-N-[2-(1,6,7,8-tetrahydro-2H-indeno-[5,4-b]furan-8-yl)ethyl]propionamide]
